Marks after values point to notes of the source that are not given here.
How the values were obtained:
Type in all cases: in vivo
Conditions in all cases: 100 = 100% disease control
[1] = system: Phakopsora pachyrhizi (the causal agent of Asian soybean rust); test: Test A: preventive spray on soybean seedlings, visual disease rating (100 = 100% control; * 50 ppm, ** 10 ppm, *** 250 ppm)
Outline: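 Preventive test: one day after spraying compound (acetone/water suspension, 250 ppm PEG400), seedlings received rust spore inoculum, 24 h in saturated air then 8 days in growth chamber, both at 22 °C. Disease control scored visually, 100 = complete, 0 = none, relative to untreated controls.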

[2] = system: Puccinia recondita f. sp. tritici (the causal agent of wheat leaf rust); test: Test B: preventive spray on wheat seedlings, disease rating (100 = 100% control; * 50 ppm, ** 10 ppm, *** 250 ppm)
Outline: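 Preventive test: Puccinia recondita f. sp. tritici spores were inoculated one day after run-off spraying of wheat seedlings with test suspension (acetone/water 50/50, 250 ppm PEG400). After 24 h in saturated air and 6 days in a growth chamber, both at 20° C, control was scored 0–100 versus untreated plants.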

[3] = system: Uncinula necator (the causal agent of grape powdery mildew); test: Test C: preventive spray on grape seedlings, disease rating (100 = 100% control; * 50 ppm, ** 10 ppm, *** 250 ppm)
From the text: (§1) General protocol for preparing test suspensions for Tests A-E: the test compounds were first dissolved in acetone in an amount equal to 3% of the final volume and then suspended at the desired concentration (in ppm) in acetone and purified water (50/50 mix by volume) containing 250 ppm of the surfactant […] (polyhydric alcohol esters). The resulting test suspensions were then used in Tests A-E.
The test solution was sprayed to the point of run-off on grape seedlings. The following day the seedlings were inoculated with a spore suspension of Uncinula necator (the causal agent of grape powdery mildew) and incubated in a growth chamber at 20° C. for 12 days, after which time disease ratings were made.
(§2) Results for Tests A-E are given in Table A. In the Table, a rating of 100 indicates 100% disease control and a rating of 0 indicates no disease control (relative to the controls). An asterisk “*” or a double asterisk “**” or a triple asterisk “***” next to the rating value indicates a 50 ppm, 10 ppm and 250 ppm test suspension was used, respectively. A dash (-) indicates the compound was not tested.

[4] = system: Zymoseptoria tritici (the causal agent of wheat leaf blotch); test: Test D: preventive spray on wheat seedlings, disease rating (100 = 100% control; * 50 ppm, ** 10 ppm, *** 250 ppm)
From the text: as §1
The test solution was sprayed to the point of run-off on wheat seedlings. The following day the seedlings were inoculated with a spore suspension of Zymoseptoria tritici (the causal agent of wheat leaf blotch) and incubated in a saturated atmosphere at 24° C. for 48 h, and then moved to a growth chamber at 20° C. for 17 days, after which time disease ratings were made.
as §2

[5] = system: Blumeria graminis f. sp. tritici (the causal agent of wheat powdery mildew); test: Test E: preventive spray on wheat seedlings, visual disease rating (100 = 100% control; * 50 ppm, ** 10 ppm, *** 250 ppm)
From the text: as §1
The test suspension was sprayed to the point of run-off on wheat seedlings. The following day the seedlings were inoculated with a spore dust of Blumeria graminis f. sp. tritici, (also known as Erysiphe graminis f. sp. tritici, the causal agent of wheat powdery mildew) and incubated in a growth chamber at 20° C. for 8 days, after which time visual disease ratings were made.
as §2

[6] = 250 ppm test suspension, soybean seedlings
[7] = 250 ppm test suspension, wheat seedlings
[8] = 250 ppm test suspension, grape seedlings
[9] = 10 ppm test suspension, soybean seedlings
[10] = 10 ppm test suspension, wheat seedlings
[11] = 50 ppm test suspension, 0 = no control
[12] = 250 ppm test suspension, 0 = no control
[13] = 50 ppm test suspension, soybean seedlings
[14] = 50 ppm test suspension, wheat seedlings
[15] = 10 ppm test suspension, 0 = no control

Structure (SMILES)	Test C disease control rating [3, 8]	Test D disease control rating [4, 7]	Test E disease control rating [5, 7]	Test A disease control rating [1, 9] [%]	Test B disease control rating [2, 10] [%]	Test C disease control rating [3, 12]	Test D disease control rating [4, 12]	Test E disease control rating [5, 12]	further results
CCOC(=O)c1cnn(Cc2ccc(O/C=C(\OC(C)C)C(F)(F)F)cc2)c1 [compound 57]	64*** %	28%	95*** %	–	–	–	–	–	Test A disease control rating [1, 6]: 100%; Test B disease control rating [2, 7]: 0%
CCO/C(=C\Oc1ccc(Cc2ncc(C(=O)NCC(F)F)o2)cc1)C(F)(F)F [compound 255]	93*** %	60*** %	64*** %	89	0	–	–	–	–
CCNC(=O)c1cnn(Cc2ccc(O/C=C(\OCC)C(F)(F)F)cc2)c1 [compound 437]	–	–	–	–	–	77*** %	78*** %	69*** %	Test A disease control rating [1, 11]: 77%; Test B disease control rating [2, 11]: 0%
O=C(NCC(F)(F)F)c1csc(Cc2ccc(OCC3(C(F)(F)F)OCCO3)cc2)n1 [compound 70]	86%	91%	83%	–	–	–	–	–	Test A disease control rating [1, 6]: 100%; Test B disease control rating [2, 7]: 100%
C=CCOC(=O)c1cnn(Cc2ccc(O/C=C(\OCC)C(F)(F)F)cc2)c1 [compound 246]	85*** %	12*** %	90*** %	100	0	–	–	–	–
CCOC(=O)c1cnn(Cc2ccc(O/C=C(\OCC)C(F)(F)F)cc2F)c1 [compound 375]	–	–	–	–	–	66*** %	95*** %	99*** %	Test A disease control rating [1, 11]: 100%; Test B disease control rating [2, 11]: 0%
CCOC(=O)c1cnn(Cc2c(F)c(F)c(O/C=C(\OCC)C(F)(F)F)c(F)c2F)c1 [compound 464]	–	–	–	–	–	73*** %	4*** %	99*** %	Test A disease control rating [1, 11]: 100%; Test B disease control rating [2, 11]: 0%
O=C(NCC1CC1)c1cnc(Cc2ccc(OCC3(C(F)(F)F)OCCO3)cc2)o1 [compound 248]	62*** %	93*** %	89*** %	71	0	–	–	–	–
CCO/C(=C\Oc1ccc(Cn2cc(C(=O)NC(C)C)cn2)cc1)C(F)(F)F [compound 118]	77*** %	13*** %	76*** %	–	–	–	–	–	Test A disease control rating [1, 13]: 100%; Test B disease control rating [2, 14]: 0%
N#Cc1cnn(Cc2ccc(OCC(O)(O)C(F)(F)F)cc2)c1 [compound 206]	34*** %	93*** %	93*** %	–	–	–	–	–	Test A disease control rating [1, 13]: 100%; Test B disease control rating [2, 14]: 98%
C#CCOC(=O)c1cnn(Cc2ccc(OCC(O)(O)C(F)(F)F)cc2)c1 [compound 44]	16*** %	98*** %	91*** %	97	85	–	–	–	–
CCCOC(=O)c1cnn(Cc2ccc(O/C=C(\OCC)C(F)(F)F)cc2)c1 [compound 217]	75*** %	23*** %	96*** %	100	0	–	–	–	–
CCO/C(=C\Oc1ccc(Cn2cc(C(=O)NCC(=O)OC)cn2)cc1)C(F)(F)F [compound 427]	–	–	–	–	–	5*** %	53*** %	29*** %	Test A disease control rating [1, 15]: 13%; Test B disease control rating [2, 15]: 0%
OC(O)(COc1ccc(Cn2cc(Br)cn2)cc1)C(F)(F)F [compound 322]	–	–	–	–	–	48*** %	100*** %	97*** %	Test A disease control rating [1, 15]: 99%; Test B disease control rating [2, 15]: 86%
CCO/C(=C\Oc1ccc(Cn2cc(C(=O)OCCC#N)cn2)cc1)C(F)(F)F [compound 245]	24*** %	18*** %	76*** %	100	0	–	–	–	–
O=C(NCC(F)(F)F)c1cnc(Cc2ccc(OCC3(C(F)(F)F)OCCO3)cc2)o1 [compound 257]	–	–	–	–	–	81*** %	35*** %	92*** %	Test A disease control rating [1, 15]: 54%; Test B disease control rating [2, 15]: 0%
CCOC(=COc1ccc(C2CN(S(=O)(=O)CC)C2)cc1)C(F)(F)F [compound 383]	–	–	–	–	–	74*** %	0*** %	0*** %	Test A disease control rating [1, 11]: 0%; Test B disease control rating [2, 11]: 0%
O=C(NCC1CC1)c1cnc(Cc2ccc(OCC(O)(O)C(F)(F)F)cc2)o1 [compound 247]	21*** %	79*** %	21*** %	13	0	–	–	–	–
O=C(NCC1CC1)c1cnc(Cc2ccc(OCC3(C(F)(F)F)OCCO3)cc2)s1 [compound 259]	–	–	–	–	–	31*** %	88*** %	83*** %	Test A disease control rating [1, 15]: 25%; Test B disease control rating [2, 15]: 0%
CCO/C(=C\Oc1cccc(Cn2cc(C(=O)NCC(F)F)cn2)c1)C(F)(F)F [compound 394]	–	–	–	–	–	75*** %	24*** %	0*** %	Test A disease control rating [1, 11]: 0%; Test B disease control rating [2, 11]: 0%
CCO/C(=C\Oc1ccc(Cc2ncc(C(=O)NCC3CC3)s2)cc1)C(F)(F)F [compound 254]	10*** %	67*** %	56*** %	73	0	–	–	–	–
CCOC(=O)c1cnn(Cc2ccc(O/C=C(\OCC)C(F)(F)F)c(F)c2F)c1 [compound 430]	–	–	–	–	–	82*** %	3*** %	99*** %	Test A disease control rating [1, 11]: 100%; Test B disease control rating [2, 11]: 0%
CCO/C(=C\Oc1ccc(Cc2ncc(C(=O)NCC3CC3)o2)cc1)C(F)(F)F [compound 258]	–	–	–	–	–	64*** %	13*** %	53*** %	Test A disease control rating [1, 15]: 96%; Test B disease control rating [2, 15]: 0%
CCOC(=O)c1cnnn1Cc1ccc(O/C=C(\OCC)C(F)(F)F)cc1 [compound 120]	–	–	–	–	–	–	–	–	Test A disease control rating [1, 13]: 100%; Test B disease control rating [2, 14]: 0%; Test C disease control rating ([3]; 50 ppm test suspension, grape seedlings): 23%; Test D disease control rating [4, 14]: 17%; Test E disease control rating [5, 14]: 98%
CCO/C(=C\Oc1cccc(Cn2cc(C(=O)NCC3CC3)cn2)c1)C(F)(F)F [compound 393]	–	–	–	–	–	63*** %	69*** %	0*** %	Test A disease control rating [1, 11]: 38%; Test B disease control rating [2, 11]: 0%
CCO/C(=C\Oc1ccc(Cn2cc(C(=O)OCCOC)cn2)cc1)C(F)(F)F [compound 222]	38*** %	17*** %	90*** %	100	0	–	–	–	–
CCO/C(=C\Oc1cccc(Cn2cc(C(=O)NCc3ncccn3)cn2)c1)C(F)(F)F [compound 402]	–	–	–	–	–	48*** %	5*** %	0*** %	Test A disease control rating [1, 11]: 97%

From US20240122180A1, “FUNGICIDAL HALOMETHYL KETONES AND HYDRATES AND THEIR MIXTURES” (FMC Corporation, priority 2020, published 2024)
